Results published in PubChem BioAssay AID1963970 (Molecular Pharmacology Branch, DTP, NCI, 2024).

System: 931267-113-T-J1-PDC multicell spheroid viability
Test: Anticancer human tumor 931267-113-T-J1-PDC patient-derived colon adenocarcinoma cell line growth inhibition [PI3K]
Conditions: for IC50: curve of first compound; for viability, T/C: stronger effect = lower value
Outline: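 Stroma-containing spheroids: tumor line, pooled-donor HUVEC, hMSC. Treatments: targeted agents with PI3K inhibitors. Dosing: clinically relevant, half-log spacing, 10 microM ceiling without known Cmax. Read-out: cell viability.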

[1] = second compound 0.00316 µM, first compound 0.0316 µM
[2] = second compound 0.00316 µM, first compound 0.1 µM
[3] = second compound 0.01 µM, first compound 0.0316 µM
[4] = second compound 0.01 µM, first compound 0.1 µM
[5] = second compound 0.0316 µM, first compound 0.0316 µM
[6] = second compound 0.0316 µM, first compound 0.1 µM
[7] = second compound 0.1 µM, first compound 0.0316 µM
[8] = second compound 0.1 µM, first compound 0.1 µM
[9] = second compound 0.316 µM, first compound 0.0316 µM
[10] = second compound 0.316 µM, first compound 0.1 µM
[11] = second compound 1 µM, first compound 0.0316 µM
[12] = second compound 1 µM, first compound 0.1 µM
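Note: viability read 7 days after compound addition.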

`CC(C)n1nc(-c2ccc3oc(N)nc3c2)c2c(N)ncnc21` + COc1c(OCCCN2CCOCC2)ccc2c3n(c(=NC(=O)c4cnc(N)nc4)nc12)CCN3 showed an IC50 (second compound 0.00316 µM) of 93.1 nM, an IC50 (second compound 0.01 µM) of 91.6 nM and an IC50 (second compound 0.0316 µM) of 68.5 nM. It also gave an IC50 (second compound 0.1 µM) of 31.2 nM, an IC50 (second compound 0.316 µM) of 1.49 nM and an IC50 (second compound 1 µM) of less than 0.316 nM. The viability, T/C (second compound 0.00316 µM, first compound 0.000316 µM) was 90.4%, the viability, T/C (second compound 0.00316 µM, first compound 0.001 µM) was 97.9% and the viability, T/C (second compound 0.00316 µM, first compound 0.00316 µM) was 94.1%. The viability, T/C (second compound 0.00316 µM, first compound 0.01 µM) was 96%, the viability, T/C [1] was 88.6% and the viability, T/C [2] was 47.3%. The viability, T/C (second compound 0.01 µM, first compound 0.000316 µM) was 96.2%, the viability, T/C (second compound 0.01 µM, first compound 0.001 µM) was 90.2% and the viability, T/C (second compound 0.01 µM, first compound 0.00316 µM) was 88.1%. For the same molecule, the viability, T/C (second compound 0.01 µM, first compound 0.01 µM) was 82.3%, the viability, T/C [3] was 75.4% and the viability, T/C [4] was 47.2%. The viability, T/C (second compound 0.0316 µM, first compound 0.000316 µM) was 90.5%, the viability, T/C (second compound 0.0316 µM, first compound 0.001 µM) was 82.1% and the viability, T/C (second compound 0.0316 µM, first compound 0.00316 µM) was 80.5%. The viability, T/C (second compound 0.0316 µM, first compound 0.01 µM) was 72.4%, the viability, T/C [5] was 60.3% and the viability, T/C [6] was 44.6%. For the same molecule, the viability, T/C (second compound 0.1 µM, first compound 0.000316 µM) was 76.5%, the viability, T/C (second compound 0.1 µM, first compound 0.001 µM) was 66% and the viability, T/C (second compound 0.1 µM, first compound 0.00316 µM) was 64.4%. For the same molecule, the viability, T/C (second compound 0.1 µM, first compound 0.01 µM) was 60.9%, the viability, T/C [7] was 51.8% and the viability, T/C [8] was 34.5%. For the same molecule, the viability, T/C (second compound 0.316 µM, first compound 0.000316 µM) was 55.5%, the viability, T/C (second compound 0.316 µM, first compound 0.001 µM) was 50.8% and the viability, T/C (second compound 0.316 µM, first compound 0.00316 µM) was 46.3%. It also gave a viability, T/C (second compound 0.316 µM, first compound 0.01 µM) of 43.1%, a viability, T/C [9] of 36% and a viability, T/C [10] of 29%. The viability, T/C (second compound 1 µM, first compound 0.000316 µM) was 37.1%, the viability, T/C (second compound 1 µM, first compound 0.001 µM) was 35.8% and the viability, T/C (second compound 1 µM, first compound 0.00316 µM) was 35.3%. For the same molecule, the viability, T/C (second compound 1 µM, first compound 0.01 µM) was 32.1%, the viability, T/C [11] was 27.5% and the viability, T/C [12] was 22.2%.

`CC1(C)CCC(CN2CCN(c3ccc(C(=O)NS(=O)(=O)c4ccc(NCC5CCOCC5)c([N+](=O)[O-])c4)c(Oc4cnc5[nH]ccc5c4)c3)CC2)=C(c2ccc(Cl)cc2)C1` + COc1c(OCCCN2CCOCC2)ccc2c3n(c(=NC(=O)c4cnc(N)nc4)nc12)CCN3 gave an IC50 (second compound 0.00316 µM) greater than 10000 nM, an IC50 (second compound 0.01 µM) greater than 10000 nM and an IC50 (second compound 0.0316 µM) greater than 10000 nM. It also gave an IC50 (second compound 0.1 µM) of 7490 nM, an IC50 (second compound 0.316 µM) of 2360 nM and an IC50 (second compound 1 µM) of less than 31.6 nM. It also gave a viability, T/C [1] of 105%, a viability, T/C [2] of 99.5% and a viability, T/C (second compound 0.00316 µM, first compound 0.316 µM) of 99%. It also gave a viability, T/C (second compound 0.00316 µM, first compound 1 µM) of 102%, a viability, T/C (second compound 0.00316 µM, first compound 3.16 µM) of 99.7% and a viability, T/C (second compound 0.00316 µM, first compound 10 µM) of 80.8%. The viability, T/C [3] was 104%, the viability, T/C [4] was 104% and the viability, T/C (second compound 0.01 µM, first compound 0.316 µM) was 97.6%. It also gave a viability, T/C (second compound 0.01 µM, first compound 1 µM) of 91.7%, a viability, T/C (second compound 0.01 µM, first compound 3.16 µM) of 96.5% and a viability, T/C (second compound 0.01 µM, first compound 10 µM) of 71.1%. For the same molecule, the viability, T/C [5] was 92.4%, the viability, T/C [6] was 89.8% and the viability, T/C (second compound 0.0316 µM, first compound 0.316 µM) was 92.8%. For the same molecule, the viability, T/C (second compound 0.0316 µM, first compound 1 µM) was 86.4%, the viability, T/C (second compound 0.0316 µM, first compound 3.16 µM) was 87.3% and the viability, T/C (second compound 0.0316 µM, first compound 10 µM) was 68.2%. The viability, T/C [7] was 74.9%, the viability, T/C [8] was 74.8% and the viability, T/C (second compound 0.1 µM, first compound 0.316 µM) was 71.2%. For the same molecule, the viability, T/C (second compound 0.1 µM, first compound 1 µM) was 65.1%, the viability, T/C (second compound 0.1 µM, first compound 3.16 µM) was 59.5% and the viability, T/C (second compound 0.1 µM, first compound 10 µM) was 46.8%. It also gave a viability, T/C [9] of 53.5%, a viability, T/C [10] of 50.3% and a viability, T/C (second compound 0.316 µM, first compound 0.316 µM) of 49.2%. For the same molecule, the viability, T/C (second compound 0.316 µM, first compound 1 µM) was 51.7%, the viability, T/C (second compound 0.316 µM, first compound 3.16 µM) was 49.6% and the viability, T/C (second compound 0.316 µM, first compound 10 µM) was 31.3%. It also gave a viability, T/C [11] of 37.5%, a viability, T/C [12] of 32.5% and a viability, T/C (second compound 1 µM, first compound 0.316 µM) of 35.8%. It also gave a viability, T/C (second compound 1 µM, first compound 1 µM) of 36.1%, a viability, T/C (second compound 1 µM, first compound 3.16 µM) of 33.7% and a viability, T/C (second compound 1 µM, first compound 10 µM) of 33.3%.
